Measured values taken from patent publication US20260355212A1 (priority 2022, published 2026).
Like-named read-outs stand apart in the source and are kept apart here.

How the values were obtained:
HCoV-HKU1 Mpro = HCoV-HKU1 Mpro (Human coronavirus HKU1, UniProt P0C6X2); assay: HCoV-HKU1 Mpro enzymatic inhibition assay (fluorescence); format: biochemical
Experimental: (§1) The hCoV Mpro are cloned, expressed in E. coli and purified by WuXi AppTec Co., Ltd. The substrate are synthesized by Genscript Biotech.
(§2) Compounds are 3 fold serially diluted for 10 doses and added to an assay plate (384w format) using ECHO, in duplicate wells. The test concentration of test compounds is defined by sponsor. […] For no inhibition control (ZPE, zero percent effect), DMSO is added.
(§3) 25 μL of Mpro proteins are added to the assay plates containing compounds, respectively, using Multidrop. The compounds and Mpro proteins are pre-incubated at room temperature for 30 min. Then 5 µL of Mpro substrates are added to the related assay plates, respectively. Each activity testing point has a relevant background control to normalize the fluorescence interference of compound.
(§4) After 60 min incubation at 30° C., the fluorescence signal (RFU) is detected using a microplate reader M2e (SpectraMax) at Ex/Em=340 nm/490 nm.
(§5) The inhibition activity is calculated using the formula below, IC50 values will be calculated using the Inhibition % data.
(§6) Inhibition %=[(CPD−BGCPD)−(ZPE−BGZPE)/(HPE−BGHPE)−(ZPE−BGZPE)]×[…] • CPD: Signal of test compounds wells, containing compound+enzyme+substrate. • ZPE: Average of signals of zero percent effective control wells, containing enzyme+substrate, no compound. • HPE: Average of signals of hundred percent effect control wells, containing GC376+enzyme+substrate. • BG: Compound background control wells, containing compound+substrate, no enzyme
(§7) IC50 values of compounds are calculated with the GraphPad Prism software using the nonlinear regression model of log(inhibitor) vs. response—Variable slope (four parameters).

SARS-CoV-2 Mpro = SARS-CoV-2 Mpro (Severe acute respiratory syndrome coronavirus 2, UniProt P0DTD1); assay: SARS-CoV-2 Mpro enzymatic inhibition assay (fluorescence); format: biochemical
Experimental: as §1
Compounds are 3 fold serially diluted for 10 doses and added to an assay plate (384w format) using ECHO, in duplicate wells. The test concentration of test compounds is defined by sponsor.
25 μL of Mpro proteins are added to the assay plates containing compounds, respectively, using Multidrop. The compounds and Mpro proteins are pre-incubated at room temperature for 30 min. Then 5 µL of Mpro substrates are added to the related assay plates, respectively.
as §4, §5, §7

HCoV-OC43 Mpro = HCoV-OC43 Mpro (Human coronavirus OC43, UniProt P0C6X6); assay: HCoV-OC43 Mpro enzymatic inhibition assay (fluorescence); format: biochemical
Experimental: as §1, §2, §3, §4, §5, §6, §7

HCoV-NL63 Mpro = HCoV-NL63 Mpro (Human coronavirus NL63, UniProt P0C6X5); assay: HCoV-NL63 Mpro enzymatic inhibition assay (fluorescence); format: biochemical
Experimental: as §1, §2, §3, §4, §5, §6, §7

HCoV-229E Mpro = HCoV-229E Mpro (Human coronavirus 229E, UniProt P0C6X1); assay: HCoV-229E Mpro enzymatic inhibition assay (fluorescence); format: biochemical
Experimental: as §1, §2, §3, §4, §5, §6, §7

MERS Mpro = MERS Mpro (Middle East respiratory syndrome-related coronavirus, UniProt K9N7C7); assay: biochemical; set-up: species or system MERS-CoV
SARS-CoV-1 Mpro = SARS-CoV-1 Mpro (Severe acute respiratory syndrome coronavirus, UniProt P0C6X7); assay: biochemical
[1] = mean, 25 nM protein, 25 μM substrate, 30 min pre-incubation, 60 min at 30° C., read-out: Mpro_SARS-CoV-2 mean IC50

Sequence of HCoV-NL63 Mpro (P0C6X5 2940-3242 limits assumed): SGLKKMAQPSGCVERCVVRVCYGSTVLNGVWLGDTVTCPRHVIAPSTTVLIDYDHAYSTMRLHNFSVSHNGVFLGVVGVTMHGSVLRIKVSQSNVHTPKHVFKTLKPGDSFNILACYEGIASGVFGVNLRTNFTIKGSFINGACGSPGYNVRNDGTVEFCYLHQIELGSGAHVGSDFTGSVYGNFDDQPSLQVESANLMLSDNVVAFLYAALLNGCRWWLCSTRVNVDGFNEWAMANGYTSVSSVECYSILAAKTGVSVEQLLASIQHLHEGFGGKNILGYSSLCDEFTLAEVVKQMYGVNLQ
Sequence of HCoV-HKU1 Mpro (P0C6X2 3335-3637 limits assumed): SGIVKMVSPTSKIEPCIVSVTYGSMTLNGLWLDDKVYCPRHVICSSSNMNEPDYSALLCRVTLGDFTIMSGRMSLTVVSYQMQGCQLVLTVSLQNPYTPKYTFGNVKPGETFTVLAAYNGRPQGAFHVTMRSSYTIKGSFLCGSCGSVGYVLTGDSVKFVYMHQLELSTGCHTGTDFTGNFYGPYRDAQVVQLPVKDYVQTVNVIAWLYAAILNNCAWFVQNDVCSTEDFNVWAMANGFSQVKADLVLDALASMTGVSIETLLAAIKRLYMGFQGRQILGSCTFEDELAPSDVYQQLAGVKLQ
Sequence of MERS Mpro (K9N7C7 3248-3553 limits assumed): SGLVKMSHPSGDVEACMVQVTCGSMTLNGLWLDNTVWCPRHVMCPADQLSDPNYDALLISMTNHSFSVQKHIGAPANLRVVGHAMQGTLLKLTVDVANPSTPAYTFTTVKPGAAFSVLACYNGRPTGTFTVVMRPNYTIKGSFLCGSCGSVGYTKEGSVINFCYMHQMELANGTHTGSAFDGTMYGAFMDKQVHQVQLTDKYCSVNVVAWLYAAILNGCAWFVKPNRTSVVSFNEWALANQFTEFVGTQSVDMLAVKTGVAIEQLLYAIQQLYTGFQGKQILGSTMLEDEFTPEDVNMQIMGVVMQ
Sequence of HCoV-OC43 Mpro (P0C6X6 3247-3549 limits assumed): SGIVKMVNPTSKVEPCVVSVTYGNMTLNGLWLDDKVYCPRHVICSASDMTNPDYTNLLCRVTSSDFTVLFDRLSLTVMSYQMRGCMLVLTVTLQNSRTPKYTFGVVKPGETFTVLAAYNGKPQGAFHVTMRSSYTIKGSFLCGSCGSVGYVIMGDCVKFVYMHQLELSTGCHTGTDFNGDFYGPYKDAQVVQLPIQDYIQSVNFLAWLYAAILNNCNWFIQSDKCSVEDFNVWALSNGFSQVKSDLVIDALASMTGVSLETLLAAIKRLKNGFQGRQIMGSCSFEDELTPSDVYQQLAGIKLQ
Sequence of HCoV-229E Mpro (P0C6X1 2966-3267 limits assumed): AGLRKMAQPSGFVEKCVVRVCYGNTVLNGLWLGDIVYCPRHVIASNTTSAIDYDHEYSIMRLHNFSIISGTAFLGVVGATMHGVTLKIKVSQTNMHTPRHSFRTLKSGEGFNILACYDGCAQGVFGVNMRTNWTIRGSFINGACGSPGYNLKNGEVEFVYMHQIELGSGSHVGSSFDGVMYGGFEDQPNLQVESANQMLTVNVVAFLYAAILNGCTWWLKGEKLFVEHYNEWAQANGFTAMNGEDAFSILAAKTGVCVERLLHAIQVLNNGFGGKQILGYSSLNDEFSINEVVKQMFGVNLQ

SMILES	IC50 (HCoV-HKU1 Mpro) [nM]	IC50 (SARS-CoV-2 Mpro; [1]) [nM]	IC50 (HCoV-OC43 Mpro) [nM]	IC50 (HCoV-NL63 Mpro) [nM]	IC50 (HCoV-229E Mpro) [nM]	IC50 (MERS Mpro) [nM]	IC50 (SARS-CoV-1 Mpro) [nM]	IC50 (SARS-CoV-2 Mpro) [nM]	IC50 (HCoV-HKU1 Mpro; read-out: Mpro_HKU1 mean IC50, mean, 12.5 nM protein, 12.5 μM substrate, 30 min pre-incubation, 60 min at 30° C.) [nM]	IC50 (HCoV-OC43 Mpro; read-out: Mpro_OC43 mean IC50, mean, 25 nM protein, 12.5 μM substrate, 30 min pre-incubation, 60 min at 30° C.) [nM]	IC50 (HCoV-NL63 Mpro; read-out: Mpro_NL63 mean IC50, mean, 50 nM protein, 12.5 μM substrate, 30 min pre-incubation, 60 min at 30° C.) [nM]	IC50 (HCoV-229E Mpro; read-out: Mpro_229E mean IC50, mean, 50 nM protein, 12.5 μM substrate, 30 min pre-incubation, 60 min at 30° C.) [nM]	IC50 (MERS Mpro; read-out: Mpro_MERS mean IC50, mean, 100 nM protein, 25 μM substrate, 30 min pre-incubation, 60 min at 30° C.) [nM]	IC50 (SARS-CoV-1 Mpro; read-out: Mpro_SARS-CoV-1 mean IC50, mean, 25 nM protein (SARS_Mpro), 25 μM substrate, 30 min pre-incubation, 60 min at 30° C.) [nM]
Cc1cccc([C@@H](C)C(=O)N2C[C@H]3[C@@H]([C@H]2C(=O)N[C@H](C=O)C[C@@H]2CCNC2=O)C3(C)C)c1 [Compound 7, (1R,2S,5S)-6,6-dimethyl-N—((S)-1-oxo-3-((S)-2-oxopyrrolidin-3-yl)propan-2-yl)-3-((R)-2-(m-tolyl)propanoyl)-3-azabicyclo[3.1.0]hexane-2-carboxamide]	9.2	11	26.6	33.6	22	81	12.9	–	–	–	–	–	–	–
N#Cc1cccc2cc(C(=O)N3C[C@H](C4CCCCC4)C[C@H]3C(=O)N[C@H](C=O)C[C@@H]3CCNC3=O)[nH]c12 [Compound 75, (2S,4S)-1-(7-cyano-1H-indole-2-carbonyl)-4-cyclohexyl-N—((S)-1-oxo-3-((S)-2-oxopyrrolidin-3-yl)propan-2-yl)pyrrolidine-2-carboxamide]	16.6	–	57	754	64	604	66	32.3	–	–	–	–	–	–
O=C[C@H](C[C@@H]1CCNC1=O)NC(=O)[C@@H]1CC2(CCC2)CN1C(=O)C1(c2ccccc2)CC1 [Compound 84, (S)—N—((S)-1-Oxo-3-((S)-2-oxopyrrolidin-3-yl)propan-2-yl)-6-(1-phenylcyclopropanecarbonyl)-6-azaspiro[3.4]octane-7-carboxamide]	17.3	–	41.2	185	47.6	703	88.3	36	–	–	–	–	–	–
CC1(C)[C@@H]2[C@@H](C(=O)N[C@H](C=O)C[C@@H]3CCNC3=O)N(C(=O)c3cc4c(F)cccc4[nH]3)C[C@@H]21 [Compound 15, (1R,2S,5S)-3-(4-fluoro-1H-indole-2-carbonyl)-6,6-dimethyl-N—((S)-1-oxo-3-((S)-2-oxopyrrolidin-3-yl)propan-2-yl)-3-azabicyclo[3.1.0]hexane-2-carboxamide]	24.2	–	32.8	44.5	39.7	175	32.7	14.5	–	–	–	–	–	–
C[C@H](C(=O)N1C[C@H]2[C@@H]([C@H]1C(=O)N[C@H](C=O)C[C@@H]1CCNC1=O)C2(C)C)C1CCCCC1 [Compound 92, (1R,2S,5S)-3-((S)-2-Cyclohexylpropanoyl)-6,6-dimethyl-N—((S)-1-oxo-3-((S)-2-oxopyrrolidin-3-yl)propan-2-yl)-3-azabicyclo[3.1.0]hexane-2-carboxamide]	39.4	45	109	162	43.9	418	89.6	–	–	–	–	–	–	–
CC1(C)[C@@H]2[C@@H](C(=O)N[C@H](C=O)C[C@@H]3CCNC3=O)N(C(=O)c3cc4ccccc4[nH]3)C[C@@H]21 [Compound 60, (1R,2S,5S)-3-(1H-Indole-2-carbonyl)-6,6-dimethyl-N—((S)-1-oxo-3-((S)-2-oxopyrrolidin-3-yl)propan-2-yl)-3-azabicyclo[3.1.0]hexane-2-carboxamide]	28.9	26	94.9	54	53.7	273	52	–	–	–	–	–	–	–
O=C[C@H](C[C@@H]1CCNC1=O)NC(=O)[C@@H]1C[C@@H](Cc2cccc(Cl)c2)CN1C(=O)c1cc2ccccc2[nH]1 [Compound 137, (2S,4R)-4-(3-Chlorobenzyl)-1-(1H-indole-2-carbonyl)-N—((S)-1-oxo-3-((S)-2-oxopyrrolidin-3-yl)propan-2-yl)pyrrolidine-2-carboxamide]	262	–	1420	6560	1260	36300	1520	478	–	–	–	–	–	–
Cc1cccc2cc(C(=O)N3C[C@H]4[C@@H]([C@H]3C(=O)N[C@H](C=O)C[C@@H]3CCNC3=O)C4(C)C)[nH]c12 [Compound 33, (1R,2S,5S)-6,6-Dimethyl-3-(7-methyl-1H-indole-2-carbonyl)-N—((S)-1-oxo-3-((S)-2-oxopyrrolidin-3-yl)propan-2-yl)-3-azabicyclo[3.1.0]hexane-2-carboxamide]	37.9	–	83.2	78	43.5	227	34	19.7	–	–	–	–	–	–
CC1(C)[C@@H]2[C@@H](C(=O)N[C@H](C=O)C[C@@H]3CCNC3=O)N(C(=O)CC3CCCCC3)C[C@@H]21 [Compound 54, (1R,2S,5S)-3-(2-Cyclohexylacetyl)-6,6-dimethyl-N—((S)-1-oxo-3-((S)-2-oxopyrrolidin-3-yl)propan-2-yl)-3-azabicyclo[3.1.0]hexane-2-carboxamide]	–	–	–	–	–	–	–	–	18.8	56.7	42.6	36.4	285	37.8
CC(C)(C)NC(=O)N[C@H](C(=O)N1C[C@H]2[C@@H]([C@H]1C(=O)N[C@@H](C[C@@H]1CCNC1=O)C(=O)C(N)=O)C2(C)C)C(C)(C)C [Compound 50, (1R, 2S, 5S)—N—((S)-4-amino-3,4-dioxo-1-((S)-2-oxopyrrolidin-3-yl)butan-2-yl)-3-((S)-2-(3-(tert-butyl)ureido)-3,3-dimethylbutanoyl)-6,6-dimethyl-3-azabicyclo[3.1.0]hexane-2-carboxamide]	34.2	–	171	256	130	621	46.9	–	–	–	–	–	–	–
O=C[C@H](C[C@@H]1CCNC1=O)NC(=O)[C@@H]1[C@H]2CCC[C@H]2CN1C(=O)COc1ccc(Cl)cc1Cl [Compound 63, (1S,3aR,6aS)-2-(2-(2,4-Dichlorophenoxy)acetyl)-N—((S)-1-oxo-3-((S)-2-oxopyrrolidin-3-yl)propan-2-yl)octahydrocyclopenta[c]pyrrole-1-carboxamide]	39.7	–	66.8	105	53.8	382	32.1	–	–	–	–	–	–	–
CC(C)(C)[C@H](NC(=O)C(F)(F)F)C(=O)N1C[C@H]2[C@@H]([C@H]1C(=O)N[C@H](C=O)C[C@@H]1CCNC1=O)C2(C)C [Compound 12, (1R,2S,5S)-3-((S)-3,3-dimethyl-2-(2,2,2-trifluoroacetamido)butanoyl)-6,6-dimethyl-N—((S)-1-oxo-3-((S)-2-oxopyrrolidin-3-yl)propan-2-yl)-3-azabicyclo[3.1.0]hexane-2-carboxamide]	15	–	37	53.9	33.8	175	21.2	–	–	–	–	–	–	–
CC1(C)[C@@H]2[C@@H](C(=O)N[C@@H](C[C@@H]3CCNC3=O)C(=O)C(=O)NC3CC3)N(C(=O)C3(c4cccc(Cl)c4)CC3)C[C@@H]21 [Compound 45, (1R,2S,5S)-3-(1-(3-Chlorophenyl)cyclopropanecarbonyl)-N—((S)-4-(cyclopropylamino)-3,4-dioxo-1-((S)-2-oxopyrrolidin-3-yl)butan-2-yl)-6,6-dimethyl-3-azabicyclo[3.1.0]hexane-2-carboxamide]	–	–	–	–	–	–	–	22.5	–	–	–	–	–	–
CC1(C)[C@@H]2[C@@H](C(=O)N[C@H](C=O)C[C@@H]3CCNC3=O)N(C(=O)c3cc4c(F)c(Cl)ccc4[nH]3)C[C@@H]21 [Compound 117, (1R,2S,5S)-3-(5-Chloro-4-fluoro-1H-indole-2-carbonyl)-6,6-dimethyl-N—((S)-1-oxo-3-((S)-2-oxopyrrolidin-3-yl)propan-2-yl)-3-azabicyclo[3.1.0]hexane-2-carboxamide]	–	–	–	–	–	–	–	126	–	–	–	–	–	–
